Data on 24 compounds can be found in US12329741B2, “HBV inhibitor and its use” (priority 2019, dated 2025).

Series [1] relates to hepatitis B virus (HBV). As to the kind of experiment: Anti-hepatitis B virus activity: HBV DNA in supernatant of HepG2.2.15 cells by qPCR. It is filed as cell-based. To be noted: 192 h, supernatant collected on day 8. The source says: (§1) In this experiment, real-time fluorescent quantitative PCR (qPCR) method was used to detect the content of HBV DNA in the supernatant of HepG2.2.15 cells to determine the anti-hepatitis B virus activity of the compound in HepG2.2.15 cells, and to detect cell viability impact of the test compound against HepG2.2.15 by Cell-titer Blue method. In the experiment, entecavir (ETV) was used as a reference compound to monitor the quality of the experiment.
On day 1, the cells were planted into a 96-well plate, the compound was added to treat the cells on day 2, a new culture medium containing the compound was replaced on day 5, and the supernatant was collected on day 8 to extract DNA. Quantitative PCR was used to detect the content of HBV DNA. Both the test compound and the control compound were diluted in a series of 3 times with 8 concentration points, and 2 replicate wells were measured in parallel. The final concentration of DMSO in the culture medium is 0.5%.
The calculation formula of the inhibition percentage is as follows: % inh.=(1-HBV copy number of sample/HBV copy number of 0.5% DMSO control)×100
EC50 was analyzed by Graphpad Prism software (four parameter logistic equations).

Series [2] can be described thus: Cytotoxicity test (Cell-titer Blue method) in HepG2.2.15 cells. It is filed as cell-based. To be noted: human, six days after treatment, highest concentration tested 100 μM, read-out: HepG2.2.15 cell viability CC50.
Excerpt: as §1
The compound concentration, plate layout, and compound treatment process are consistent with the antiviral experiments. In six days after the cells were treated with the compound, the cell viability was measured with Cell-titer Blue.
Analyze the data and calculate relative cell viability: Use the following formula to calculate the percentage of cell viability: % Cell viability=(sample fluorescence reading-fluorescence reading of culture medium control)/(fluorescence reading of DMSO control-fluorescence reading of the culture medium control)×100.
Finally, GraphPad Prism software was used to calculate the CC50 value of the compound.

By EC50 is commonly meant the concentration that produces a half-maximal response. A higher EC50 goes with weaker potency. A word on the CC50: it is the concentration that lowers cell viability or growth by half. In series [1], `Cc1oc(C(=O)C(=O)NC(C)(C)C)cc1C(=O)Nc1cc(F)c(F)c(F)c1` [Compound 20, 2-Methyl-3-amide-N-(3,4,5-trifluorophenyl)-5-(2-tert-butylamino-oxalyl)-furan] gave an EC50 of 0.05 to 0.5 µM. Moreover, in series [2], the CC50 at 6 days was > 100 µM.

`Cc1oc(C(=O)C(=O)NC(C)(C)C)cc1C(=O)Nc1ccc(F)c(C#N)c1` [Compound 21] had an EC50 in series [1] of 0.5 to 5 µM. The CC50 at 6 days in series [2] is > 100 µM.

With `Cc1oc(C(=O)C(=O)NC(C)(C)C)cc1C(=O)Nc1ccc(C(F)(F)F)cc1` [Compound 22, 2-Methyl-3-amide-N-(4-trifluoromethylphenyl)-5-(2-tert-butylamino-oxalyl)-furan], the EC50 in series [1] is > 50 µM. Besides, the CC50 at 6 days in series [2] was > 100 µM.

Compound `C#Cc1cc(NC(=O)c2cc(C(=O)C(=O)NC(C)(C)C)oc2C)ccc1F` [Compound 27, 2-Methyl-3-amide-N-(3-alkynyl-4-fluorophenyl)-5-(2-tert-butylamino-oxalyI)-furan] yielded an EC50 in series [1] of 5 to 50 µM. In series [2], the CC50 at 6 days is > 100 µM.

`C#Cc1cccc(NC(=O)c2cc(C(=O)C(=O)NC(C)(C)C)oc2C)c1` [Compound 28, 2-Methyl-3-amide-N-(3-alkynylphenyl)-5-(2-tert-butylamino-oxalyl)-furan] gave an EC50 in series [1] of 5 to 50 µM. Also, in series [2], the CC50 at 6 days is > 100 µM.

Compound `Cc1sc(C(=O)C(=O)NC(C)(C)C)cc1C(=O)Nc1ccc(F)c(Cl)c1` [Compound 29, 2-Methyl-3-amide-N-(3-chloro-4-fluorophenyl)-5-(2-tert-butylamino-oxalyl)-thiophene] had an EC50 in series [1] of 0.05 to 0.5 µM. Further, in series [2], the CC50 at 6 days was > 100 µM.

As to `C#CCNC(=O)C(=O)c1cc(C(=O)Nc2ccc(F)c(Cl)c2)c(C)s1` [Compound 30, 2-Methyl-3-amide-N-(3-chloro-4-fluorophenyl)-5-(2-propargylamino-oxalyl)-thiophene], the EC50 in series [1] was 0.5 to 5 µM. For the same compound, the CC50 at 6 days in series [2] is > 100 µM.

As to `Cc1sc(C(=O)C(=O)NC(C)(C)C)cc1C(=O)Nc1ccc(F)c(F)c1` [Compound 34, 2-Methyl-3-amide-N-(3,4-difluorophenyl)-5-(2-tert-butylamino-oxalyl)-thiophene], the EC50 in series [1] was 0.05 to 0.5 µM. Moreover, the CC50 at 6 days in series [2] is > 100 µM.

For `Cc1sc(C(=O)C(=O)NC(C)(C)C)cc1C(=O)Nc1cc(F)c(F)c(F)c1` [Compound 35, 2-Methyl-3-amide-N-(3,4,5-trifluorophenyl)-5-(2-tert-butylamino-oxalyl)-thiophene], the EC50 in series [1] was in the range of 0.5 to 5 µM. Moreover, the CC50 at 6 days in series [2] was > 100 µM.

On to `C#CC(C)(C)NC(=O)C(=O)c1sc(C)c(C(=O)Nc2ccc(F)c(Cl)c2)c1C` [Compound 38, 2,4-Dimethyl-3-amide-N-(3-chloro-4-fluorophenyl)-5-(2-(1,1-dimethylpropynamido)-oxalyl)-thiophene], for which the EC50 in series [1] was ≤ 0.05 µM. Besides, the CC50 at 6 days in series [2] was > 100 µM.

Turning to `C#CC(C)(C)NC(=O)C(=O)c1sc(C)c(C(=O)Nc2ccc3occc3c2)c1C` [Compound 39, 2,4-Dimethyl-3-amide-N-(benzofuran-5-yl)-5-(2-(1,1-dimethylpropynamido)-oxalyl)-Thiophene], in series [1], the EC50 is ≤ 0.05 µM. Besides, in series [2], the CC50 at 6 days was > 100 µM.

As to `COCC1(NC(=O)C(=O)c2sc(C)c(C(=O)Nc3ccc4occc4c3)c2C)COC1` [Compound 41], in series [1], the EC50 was ≤ 0.05 µM. Besides, the CC50 at 6 days in series [2] was > 100 µM.

`CC(C)(C)NC(=O)C(=O)c1cc(C(=O)Nc2ccc(F)cc2)c(C(C)(C)C)o1` [Compound 43, 2-tert-Butyl-3-amide-N-(4-fluorophenyl)-5-(2-tert-butylamino-oxalyl)-furan] returned an EC50 in series [1] of 5 to 50 µM. The CC50 at 6 days in series [2] was > 100 µM.

As to `CC(C)(C)NC(=O)C(=O)c1nc(C(=O)Nc2ccc(F)c(Cl)c2)cs1` [Compound 44, 2-(2-Tert-Butylamino-oxalyl)-4-amide-N-(3-chloro-4-fluoro-phenyl)-thiazole], the EC50 in series [1] is > 50 µM. Moreover, the CC50 at 6 days in series [2] stood at 28 µM.

In series [1], `Cc1oc(C(=O)C(=O)NC(C)(C)C)c(Cl)c1C(=O)Nc1cc(F)c(F)c(F)c1` [Compound 49, 2-Methyl-3-amide-N-(3,4,5-trifluorophenyl)-4-chloro-5-(2-tert-butylamino-oxalyl)-furan] gave a 50% effective concentration (EC50) of 5 to 50 µM. Moreover, the CC50 at 6 days in series [2] is 47 µM.

For `C#CC1(NC(=O)C(=O)c2c(C)c(C(=O)Nc3ccc4occc4c3)n(C)c2C)CC1` [Compound 55, 1,3,5-Trimethyl-2-amide-N-(benzofuran-5-yl)-4-(2-(1-ethynylcyclopropane-1-amino)-oxalyl)-Pyrrole], the EC50 in series [1] is ≤ 0.05 µM. In addition, in series [2], the CC50 at 6 days is > 100 µM.

Consider `Cc1c(C(=O)C(=O)NC2(C)COC2)c(C)n(C)c1C(=O)Nc1ccc2occc2c1` [Compound 57, 1,3,5-Trimethyl-2-amide-N-(benzofuran-5-yl)-4-(2-(3-methyl-3-oxetanino)-oxalyl)-pyrrole], for which the EC50 in series [1] is ≤ 0.05 µM. In series [2], the CC50 at 6 days was > 100 µM.

Consider `Cc1c(C(=O)C(=O)NC2CCCC2)c(C)n(C)c1C(=O)Nc1ccc2occc2c1` [Compound 58, 1,3,5-Trimethyl-2-amide-N-(benzofuran-5-yl)-4-(2-cyclopentylamino-oxalyl)-pyrrole], for which, in series [1], the EC50 is ≤ 0.05 µM. Moreover, in series [2], the CC50 at 6 days is > 100 µM.

For the compound `Cc1c(C(=O)C(=O)Nc2nccs2)c(C)n(C)c1C(=O)Nc1ccc2occc2c1` [Compound 59, 1,3,5-Trimethyl-2-amide-N-(benzofuran-5-yl)-4-(2-(thiazol-2-amino)-oxalyl)-pyrrole], in series [1], the EC50 is ≤ 0.05 µM. Also, in series [2], the 50% cytotoxic concentration (CC50) at 6 days was > 100 µM.

Regarding `CNC(=O)C1(NC(=O)C(=O)c2c(C)c(C(=O)Nc3ccc4occc4c3)n(C)c2C)CC(F)(F)C1` [Compound 60, 1,3,5-Trimethyl-2-amide-N-(benzofuran-5-yl)-4-(2-(N-methyl-1-carboxamide-3,3-difluorocyclobutane-1-amine)-oxalyl)-pyrrole], the EC50 in series [1] is ≤ 0.05 µM. Besides, the CC50 at 6 days in series [2] is > 100 µM.

Turning to `COCC1(NC(=O)C(=O)c2c(C)c(C(=O)Nc3ccc4occc4c3)n(C)c2C)COC1` [Compound 62, 1,3,5-trimethyl-2-amide-N-(benzofuran-5-yl)-4-(2-(3-methoxymethyl-3-oxetan)(amino)-oxalyl)-pyrrole], the EC50 in series [1] was ≤ 0.05 µM. For the same compound, the CC50 at 6 days in series [2] was > 100 µM.

The compound `C#CCNC(=O)C(=O)c1c(C)c(C(=O)Nc2ccc3sccc3c2)n(C)c1C` [Compound 63, 1,3,5-Trimethyl-2-amide-N-(benzothiophen-5-yl)-4-(2-propargylamino-oxalyl)-pyrrole] came in with a concentration for a half-maximal effect (EC50) in series [1] of 0.05 to 0.5 µM. The CC50 at 6 days in series [2] is > 100 µM.

In the case of `C#CCNC(=O)C(=O)c1c(C)c(C(=O)Nc2ccc3c(ccn3C)c2)n(C)c1C` [Compound 64, 1,3,5-Trimethyl-2-amide-N-(1-methyl-1H-indol-5-yl)-4-(2-propargylamino-oxalyl)-pyrrole], in series [1], the EC50 lay within 0.5 to 5 µM. For the same compound, the CC50 at 6 days in series [2] was > 100 µM.

`C#CCNC(=O)C(=O)c1c(C)c(C(=O)Nc2ccc3ccccc3c2)n(C)c1C` [Compound 66, 1,3,5-Trimethyl-2-amide-N-(naphthalen-2-yl)-4-(2-propargylamino-oxalyl)-pyrrole] had an EC50 in series [1] of 0.05 to 0.5 µM. The CC50 at 6 days in series [2] was > 100 µM.
